pEC50, pIC50: −log10 of the molar value. Read-outs that look alike come from different tables or passages of the source.
How the values were obtained:
[1] = biological target: T1, HCV polymerase 1A (Δ21 NS5B, H77) (Hepatitis C virus genotype 1a, UniProt P27958); assay: biochemical
T1 construct: 20 to 50 nM Δ21 NS5B
Description: (§1) Either two-fold serial dilutions (fractional inhibition assay) or a narrower range of dilutions spanning the IC50 of the inhibitor (tight binding assay) of the inhibitors were incubated with 20 mM Tris-Cl pH 7.4, 2 mM MnCl2, 1 mM dithiothreitol, 1 mM ethylene diamine tetraacetic acid (EDTA), 60 to 125 μM GTP and 20 to 50 nM Δ21 NS5B (HCV Strain 1B (BK, Genbank accession number M58335, or H77, Genbank accession number AF011751)) for 15 min at room temperature. The reaction was initiated by the addition of 20 μM CTP, 20 μM ATP, 1 μM ^3H-UTP (10 mCi/umol), 5 nM template RNA and 0.1 U/μl RNase inhibitor (RNasin, Promega), and allowed to proceed for 2 to 4 h at room temperature. Reaction volume was 50 μl. The reaction was terminated by the addition of 1 volume of 4 mM spermine in 10 mM Tris-Cl pH 8.0, 1 mM EDTA. After incubation for at least 15 min at room temperature, the precipitated RNA was captured by filtering through a GF/B filter (Millipore) in a 96 well format. The filter plate was washed three times with 200 μl each of 2 mM spermine, 10 mM Tris-Cl pH 8.0, 1 mM EDTA, and 2 times with ethanol. After air-drying, 30 μl of Microscint 20 scintillation cocktail (Packard) was added to each well, and the retained cpm were determined by scintillation counting. […] Retained cpm were plotted vs. inhibitor concentration and fit to equation 1 using non-linear regression (ref. 1) to obtain the IC50 values: Retained cpm=A[sqrt{(IC50+It−Et)^2+4*IC50*Et}−(IC50+It−Et)]
(§2) Ref. Morrison, J. F. and S. R. Stone. 1985. Approaches to the study and analysis of the inhibition of enzymes by slow- and tight-binding inhibitors. Comments Mol. Cell. Biophys. 2: 347-368.
(§3) The sequence of the template RNA used was: 5′-[…] […] […] […] […] […] […] […] […] […] […] […] […] […] […] […] […]-3′ (SEQ ID NO:1).

[2] = biological target: T2, HCV polymerase 1B (Δ21 NS5B, HCV Strain 1B BK) (Hepatitis C virus genotype 1b, UniProt P26663); assay: biochemical
T2 construct: 20 to 50 nM Δ21 NS5B
T2 sequence (P26663 2420-2989, stated change not applied): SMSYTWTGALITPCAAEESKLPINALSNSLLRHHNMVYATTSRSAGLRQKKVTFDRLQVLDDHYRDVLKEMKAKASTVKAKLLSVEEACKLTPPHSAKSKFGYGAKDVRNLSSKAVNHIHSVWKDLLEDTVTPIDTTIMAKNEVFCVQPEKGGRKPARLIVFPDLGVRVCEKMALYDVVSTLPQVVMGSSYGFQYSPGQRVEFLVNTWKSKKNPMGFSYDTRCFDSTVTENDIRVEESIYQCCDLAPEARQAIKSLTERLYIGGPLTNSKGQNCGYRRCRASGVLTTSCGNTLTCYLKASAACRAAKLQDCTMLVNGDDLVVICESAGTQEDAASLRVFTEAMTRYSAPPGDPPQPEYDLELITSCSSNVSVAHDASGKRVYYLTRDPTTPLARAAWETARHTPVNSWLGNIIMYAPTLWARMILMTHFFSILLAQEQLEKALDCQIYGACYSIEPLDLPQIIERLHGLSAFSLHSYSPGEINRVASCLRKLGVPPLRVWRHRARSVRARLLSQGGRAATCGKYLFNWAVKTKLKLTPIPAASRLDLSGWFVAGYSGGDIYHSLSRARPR
Description: as §1, §2, §3

[3] = test system: genotype 1a-H77 subgenomic replicon cell line; assay: HCV Polymerase Replicon Assay, genotype 1a-H77 (luciferase reporter); format: cell-based; conditions: Hepatitis C virus, 72 h, read-out: EC50 1a
[4] = test system: genotype 1b-Con1 subgenomic replicon cell line; assay: HCV Polymerase Replicon Assay, genotype 1b-Con1 (luciferase reporter); format: cell-based; conditions: Hepatitis C virus, 72 h, read-out: EC50 1b
[5] = replicon 1a-H77, luciferase, three days
[6] = replicon 1b-Con1, luciferase, three days

T1 sequence (P27958 2421-2990, stated change not applied): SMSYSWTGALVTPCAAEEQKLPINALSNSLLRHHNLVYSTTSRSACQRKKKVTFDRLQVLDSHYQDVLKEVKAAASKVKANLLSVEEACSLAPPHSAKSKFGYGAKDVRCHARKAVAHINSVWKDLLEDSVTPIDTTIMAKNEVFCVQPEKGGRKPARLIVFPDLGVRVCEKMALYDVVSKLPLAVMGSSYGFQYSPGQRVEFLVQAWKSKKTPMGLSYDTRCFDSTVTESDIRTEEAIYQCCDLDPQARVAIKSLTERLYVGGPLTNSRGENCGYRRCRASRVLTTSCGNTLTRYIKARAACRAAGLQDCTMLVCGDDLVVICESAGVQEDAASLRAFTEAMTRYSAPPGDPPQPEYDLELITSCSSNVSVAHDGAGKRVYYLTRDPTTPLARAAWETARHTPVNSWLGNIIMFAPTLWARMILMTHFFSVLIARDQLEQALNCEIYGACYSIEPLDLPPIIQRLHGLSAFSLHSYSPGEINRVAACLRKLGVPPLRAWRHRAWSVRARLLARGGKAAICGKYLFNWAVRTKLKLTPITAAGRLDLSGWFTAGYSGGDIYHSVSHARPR

Structure (SMILES)	pIC50 [1]	pIC50 [2]	pEC50 [3]	pEC50 [4]	pEC50 [3, 5]	pEC50 [4, 6]
COc1c(/C=C/c2ccc(NS(C)(=O)=O)cc2C(=O)N(C)C2CCS(=O)(=O)C2)cc(-n2ccc(=O)[nH]c2=O)cc1C(C)(C)C (stereo not shown) [IB-L1-1.18, 2-{(E)-2-[3-tert-butyl-5-(2,4-dioxo-3,4-dihydro-2H-pyrimidin-1-yl)-2-methoxy-phenyl]-vinyl}-N-(1,1-dioxo-tetrahydro-1lambda*6*-thiophen-3-yl)-5-methanesulfonylamino-N-methyl-benzamide]	> 8.00	7.00 to 8.00	7.00 to 8.00	7.00 to 8.00		
CO/N=C/c1cc(NS(C)(=O)=O)ccc1/C=C/c1cc(-n2ccc(=O)[nH]c2=O)cc(C(C)(C)C)c1OC [IB-L1-1.19, N-(4-(3-tert-butyl-5-(2,4-dioxo-3,4-dihydropyrimidin-1(2H)-yl)-2-methoxystyryl)-3-((E)-(methoxyimino)methyl)phenyl)methanesulfonamide]	> 8.00	7.00 to 8.00	7.00 to 8.00	> 8.00		
COc1c(/C=C/c2ccc(NS(C)(=O)=O)cc2)cc(-n2cc(Cl)c(=O)[nH]c2=O)cc1C(C)(C)C [IB-L1-1.20, N-(4-{(E)-2-[3-tert-butyl-5-(5-chloro-2,4-dioxo-3,4-dihydro-2H-pyrimidin-1-yl)-2-methoxyphenyl]-vinyl}-phenyl)-methanesulfonamide]	> 8.00	7.00 to 8.00			7.00 to 8.00	> 8.00
COc1c(/C=C/c2ccc(NS(C)(=O)=O)cc2C(N)=O)cc(-n2ccc(=O)[nH]c2=O)cc1C(C)(C)C [IB-L1-1.21, 2-{(E)-2-[3-tert-butyl-5-(2,4-dioxo-3,4-dihydro-2H-pyrimidin-1-yl)-2-methoxy-phenyl]-vinyl}-5-methanesulfonylamino-benzamide]	> 8.00	7.00 to 8.00	7.00 to 8.00	> 8.00		
COc1c(/C=C/c2ccc(NS(C)(=O)=O)cc2C(=O)N2CCC2)cc(-n2ccc(=O)[nH]c2=O)cc1C(C)(C)C [IB-L1-1.22, N-(3-(azetidine-1-carbonyl)-4-{(E)-2-[3-tert-butyl-5-(2,4-dioxo-3,4-dihydro-2H-pyrimidin-1-yl)-2-methoxy-phenyl]-vinyl}-phenyl)-methanesulfonamide]	7.00 to 8.00	7.00 to 8.00	7.00 to 8.00	> 8.00		
COc1c(/C=C/c2ccc(NS(C)(=O)=O)cc2C(=O)N2CCOCC2)cc(-n2ccc(=O)[nH]c2=O)cc1C(C)(C)C [IB-L1-1.23, (E)-N-(4-(3-tert-butyl-5-(2,4-dioxo-3,4-dihydropyrimidin-1(2H)-yl)-2-methoxystyryl)-3-(morpholine-4-carbonyl)phenyl)methanesulfonamide]	7.00 to 8.00	7.00 to 8.00	6.00 to 7.00	> 8.00		
COCCN(C)C(=O)c1cc(NS(C)(=O)=O)ccc1/C=C/c1cc(-n2ccc(=O)[nH]c2=O)cc(C(C)(C)C)c1OC [IB-L1-1.24, 2-{(E)-2-[3-tert-butyl-5-(2,4-dioxo-3,4-dihydro-2H-pyrimidin-1-yl)-2-methoxy-phenyl]-vinyl}-5-methanesulfonylamino-N-(2-methoxy-ethyl)-N-methyl-benzamide]	7.00 to 8.00	7.00 to 8.00	7.00 to 8.00	> 8.00		
COc1c(/C=C/c2ccc(NS(C)(=O)=O)cc2COC(C)C)cc(-n2ccc(=O)[nH]c2=O)cc1C(C)(C)C [IB-L1-1.25, N-(4-{(E)-2-[3-tert-butyl-5-(2,4-dioxo-3,4-dihydro-2H-pyrimidin-1-yl)-2-methoxy-phenyl]-vinyl}-3-isopropoxymethyl-phenyl)-methanesulfonamide]	7.00 to 8.00	7.00 to 8.00	7.00 to 8.00	> 8.00		
COc1c(/C=C/c2ccc(NS(C)(=O)=O)cc2-c2ncco2)cc(-n2ccc(=O)[nH]c2=O)cc1C(C)(C)C [IB-L1-1.26, (E)-N-(4-(3-tert-butyl-5-(2,4-dioxo-3,4-dihydropyrimidin-1(2H)-yl)-2-methoxystyryl)-3-(oxazol-2-yl)phenyl)methanesulfonamide]	7.00 to 8.00	7.00 to 8.00	7.00 to 8.00	> 8.00		
COc1c(/C=C/c2ccc(NS(C)(=O)=O)cc2C(=O)N2CCCC2)cc(-n2ccc(=O)[nH]c2=O)cc1C(C)(C)C [IB-L1-1.27, N-[4-{(E)-2-[3-tert-butyl-5-(2,4-dioxo-3,4-dihydro-2H-pyrimidin-1-yl)-2-methoxy-phenyl]-vinyl}-3-(pyrrolidine-1-carbonyl)-phenyl]-methanesulfonamide]	7.00 to 8.00	7.00 to 8.00	7.00 to 8.00	> 8.00		
COc1c(/C=C/c2ccc(NS(C)(=O)=O)cc2N)cc(-n2ccc(=O)[nH]c2=O)cc1C(C)(C)C [IB-L1-1.28, (E)-N-(3-amino-4-(3-tert-butyl-5-(2,4-dioxo-3,4-dihydropyrimidin-1(2H)-yl)-2-methoxystyryl)phenyl)methanesulfonamide]	7.00 to 8.00	7.00 to 8.00	> 8.00	> 8.00		
COc1c(/C=C/c2ccc(NS(C)(=O)=O)cc2CN2CC(O)C2)cc(-n2ccc(=O)[nH]c2=O)cc1C(C)(C)C [IB-L1-1.29, N-[4-{(E)-2-[3-tert-butyl-5-(2,4-dioxo-3,4-dihydro-2H-pyrimidin-1-yl)-2-methoxy-phenyl]-vinyl}-3-(3-hydroxy-azetidin-1-ylmethyl)-phenyl]-methanesulfonamide]	7.00 to 8.00	7.00 to 8.00	6.00 to 7.00	6.00 to 7.00		
CCOc1c(/C=C/c2ccc(NS(C)(=O)=O)cc2)cc(-n2ccc(=O)[nH]c2=O)cc1C(C)(C)C [IB-L1-1.30, (E)-N-(4-(3-tert-butyl-5-(2,4-dioxo-3,4-dihydropyrimidin-1(2H)-yl)-2-ethoxystyryl)phenyl)methanesulfonamide]	7.00 to 8.00	7.00 to 8.00			6.00 to 7.00	7.00 to 8.00
COc1c(/C=C/c2ccc(NS(C)(=O)=O)cc2CNCCC(C)C)cc(-n2ccc(=O)[nH]c2=O)cc1C(C)(C)C [IB-L1-1.31, (E)-N-(4-(3-tert-butyl-5-(2,4-dioxo-3,4-dihydropyrimidin-1(2H)-yl)-2-methoxystyryl)-3-((isopentylamino)methyl)phenyl)methanesulfonamide]	7.00 to 8.00	6.00 to 7.00	< 6.00	< 6.00		
COc1c(/C=C/c2ccc(NS(C)(=O)=O)cc2NC(=O)OC(C)(C)C)cc(-n2ccc(=O)[nH]c2=O)cc1C(C)(C)C [IB-L1-1.32, (E)-tert-butyl 2-(3-tert-butyl-5-(2,4-dioxo-3,4-dihydropyrimidin-1(2H)-yl)-2-methoxystyryl)-5-(methylsulfonamido)phenylcarbamate]	6.00 to 7.00	6.00 to 7.00	6.00 to 7.00	7.00 to 8.00		
COc1c(/C=C/c2ccc(NS(C)(=O)=O)cc2CN2CCCC2)cc(-n2ccc(=O)[nH]c2=O)cc1C(C)(C)C [IB-L1-1.33, N-(4-{(E)-2-[3-tert-Butyl-5-(2,4-dioxo-3,4-dihydro-2H-pyrimidin-1-yl)-2-methoxy-phenyl]-vinyl}-3-pyrrolidin-1-ylmethyl-phenyl)-methanesulfonamide]	6.00 to 7.00	6.00 to 7.00	6.00 to 7.00	7.00 to 8.00		
COc1c(/C=C\c2ccc(NS(C)(=O)=O)cc2)cc(-n2ccc(=O)[nH]c2=O)cc1C(C)(C)C [IB-L1-1.34, N-(4-{(Z)-2-[3-tert-Butyl-5-(2,4-dioxo-3,4-dihydro-2H-pyrimidin-1-yl)-2-methoxy-phenyl]-vinyl}-phenyl)-methanesulfonamide]	< 6.00	< 6.00	7.00 to 8.00	> 8.00		
COc1c(/C=C/c2ccc(NS(C)(=O)=O)cc2)cc(-n2ccc(=O)[nH]c2=O)cc1C(C)(C)CO [IB-L1-1.45, (E)-N-(4-(5-(2,4-dioxo-3,4-dihydropyrimidin-1(2H)-yl)-3-(1-hydroxy-2-methylpropan-2-yl)-2-methoxystyryl)phenyl)methanesulfonamide]	> 8.00	7.00 to 8.00			7.00 to 8.00	> 8.00
COc1c(/C=C/c2ccc(NS(C)(=O)=O)cc2)cc(-n2ccc(=O)[nH]c2=O)cc1-c1ccco1 [IB-L1-1.46, (E)-N-(4-(5-(2,4-dioxo-3,4-dihydropyrimidin-1(2H)-yl)-3-(furan-2-yl)-2-methoxystyryl)phenyl)methanesulfonamide]	7.00 to 8.00	7.00 to 8.00			6.00 to 7.00	> 8.00
